Consider one molecule from patent publication EP0434750B1 (priority 1988, dated 1990).

In general, Km refers to the concentration of substrate that gives half-maximal velocity.

Several values for one entry are separate records, joined by “and”; a condition that tells them apart may be missing. Identical values can stand only once. Like-named read-outs stand apart in the source and are kept apart here.

The subject of series [1] is C57 black mice. The series can be described thus: Silver degeneration study of striatal nerve terminals (Fink-Heimer). To be noted: MPTP 20 mg/kg/h x 4, killed one day later. Type of series: in vivo. Here is the method: Nerve terminal degeneration studies are performed using the method of Fink, R.P. et al., Brain Research 4, 369 (1967) (Procedure 1). This method makes possible selective silver impregnation of degenerating nerve fibers and terminals. Mice for these studies are killed under sodium pentobarbital anesthesia (40 mg/kg) by transcardial perfusion with 10% formal saline. The brain is immediately removed and stored in perfusion fluid at 0-4°C for at least one week before being sectioned on a freezing microtomee. 30 µm coronal sections are collected in 5% formal saline, then stained with silver according to Fink et al., supra.
Some fine granular degeneration is also found in the nucleus accumbens and olfactory tubercle, but in these regions it was much less dense. No such degeneration is found in identically treated sections of control mice, or in other brain regions visible in coronal brain sections at the level of the striatum.

Another series concerns squirrel monkeys. The series can be described thus: Treatment of MPTP-induced parkinsonism in squirrel monkeys. To be noted: i.p. MPTP, three dosage schedules (Groups A-C). Type of series: in vivo. Here is the method:
Male squirrel monkeys (aged 2-3 years) are used for this study. […] All injections are intraperitoneal.
Three different dosage schedules of MPTP are used. Monkey Group A receives four doses, 2 mg/kg each, which are given at two-hour intervals. Monkey Group B is treated over a five-day period. On day 1, a single 2 mg/kg dose is given. On day 3, two injections of 2 mg/kg each are given, six hours apart. On day 5, a 3 mg/kg dose is given followed by a 0.5 mg/kg dose four hours later (total dose: 9.5 mg/kg). Three doses of 3 mg/kg each are given to Monkey Group C, spaced at six-day intervals. Monkey Group D serves as a control.
A similar response to the same treatment is observed on each of the next four days. Subsequently, the animal becomes less responsive to medication and is sacrificed on day 10. One monkey in Group B responds to Sinemet® (one-eighth of a 10/100 tablet) with full mobility on day 9. However, on subsequent days, […] becomes increasingly less responsive to medication, often appearing uncoordinated and shaky. This monkey is sacrificed on day 15. […] Three days later, this monkey becomes profoundly hypokinetic, develops slow respirations, and dies.
After increased bradykinesis and frequent nodding-off are observed in the monkeys, several monkeys of Groups A, B and C are administered melanin by injection into the cerebrospinal fluid at a dose of 50 mg/kg daily. […]

Series [2] has as its system C57 black mice. The series can be described thus: Lethality of MPTP regimens in mice. The note with it: 2.5, 5 and 10 mg/kg/h x 4 MPTP regimens. Type of series: in vivo. Here is the method: (§1) All other studies are performed in C57 black mice.
(§2) Approximately 20% of the mice die after the 20 mg/kg/h x 4 regimen. […]

The nature of series [3]: Lethality of MPTP regimens in mice. Type of series: in vivo. To be noted: mouse, in vivo, ip. Here is the method: as §1, §2
In series [4] the test system is monkeys (Macaca fascicularis). The series can be described thus: Neurological examination of MPTP-treated monkeys with or without chloroquine pretreatment. Type of series: in vivo. To be noted: individual monkeys. From the text: Four animals are naive controls. […] TABLE 3
A short description of series [5]: Binding of MPTP to synthetic dopamine melanin (Scatchard analysis). Here is the method:
Synthetic dopamine melanin is prepared by autooxidation (Lyden et al., supra). The dopamine melanin suspension (in distilled water) is adjusted to contain 5 mg melanin per ml. Both pigment suspensions are stored at 2°C.
The reaction mixtures are incubated at room temperature for one hour. Reference samples contain distilled water instead of melanin.
From the obtained data, the classes of binding sites, association constants and the binding capacity of the melanins are estimated according to Scatchard, G. et al., J. Am. Chem. Soc. 79, 12 (1957). As the molecular weight of melanin is unknown, the value for the number of binding sites is expressed as mol per mg melanin. The calculations are based on a melanin content of 2.5 mg per incubation.

For series [6], the target named is [^3H]mazindol binding site, striatal membranes (Mus musculus, UniProt Q61327). To be noted: three weeks after MPTP 20 mg/kg/h x 4. Here is the method: This group is used only for anatomical studies looking for cell loss in the substantive nigra cells (SNc). All other studies are performed in C57 black mice.
[^3H]mazindol binding site, striatal membranes, sequence (Q61327 whole entry): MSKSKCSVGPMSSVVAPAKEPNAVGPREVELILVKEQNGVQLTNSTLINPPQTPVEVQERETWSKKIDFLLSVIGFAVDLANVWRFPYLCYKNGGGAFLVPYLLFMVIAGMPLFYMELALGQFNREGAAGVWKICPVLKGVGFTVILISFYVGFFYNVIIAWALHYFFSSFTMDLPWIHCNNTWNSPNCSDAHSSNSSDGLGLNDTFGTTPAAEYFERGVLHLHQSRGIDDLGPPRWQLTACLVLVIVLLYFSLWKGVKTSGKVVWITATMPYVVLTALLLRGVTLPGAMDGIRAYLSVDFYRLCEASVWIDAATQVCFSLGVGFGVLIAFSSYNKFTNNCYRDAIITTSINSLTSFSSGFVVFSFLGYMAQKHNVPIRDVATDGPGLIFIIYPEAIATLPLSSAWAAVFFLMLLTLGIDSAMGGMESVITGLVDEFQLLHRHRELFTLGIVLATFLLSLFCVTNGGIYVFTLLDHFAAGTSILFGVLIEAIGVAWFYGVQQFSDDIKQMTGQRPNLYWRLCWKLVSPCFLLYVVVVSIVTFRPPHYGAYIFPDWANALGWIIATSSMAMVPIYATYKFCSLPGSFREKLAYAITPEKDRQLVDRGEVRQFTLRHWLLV
Series [7] deals with crude striatal synaptosomal suspensions. The series is described as follows: In vitro accumulation of [3H]DA by crude striatal synaptosomal suspensions. Type of series: biochemical, mice. Here is the method: as §1
The in vitro accumulation of [^3H]DA by crude striatal synaptosomal suspensions is measured using the method of Snyder, S.H. et al., J.Pharmacol.Exp.Ther. 165, 78 (1968) with minor modifications. Briefly, crude synaptosomal suspensions are prepared by homogenizing striatal tissue in 50 vols. (w/v) of ice-cold 0.32 M sucrose, then centrifuging the homogenate for 10 minutes at 1,000 x g. […] After vortexing, tubes (except temperature blanks) are incubated in a waterbath at 37°C for five minutes, then returned to ice. Synaptosomes are harvested by filtration. Filters are rinsed twice with 5 ml aliquots of physiological saline. Radioactivity in the filters is quantified by liquid scintillation spectroscopy. Assays are performed in sextuplicate at each DA concentration, with half of the samples serving as blanks. Active uptake is defined as the difference between [^3H]DA (PM/mg tissue/5 min.) incubation at 37°C after correction for uptake at 0-4°C.

Where [8] appears, read: one week after MPTP 20 mg/kg/h x 4.

Take `CN1CC=C(c2ccccc2)CC1` [MPTP, 1-Methyl-4-phenyl-1,2,5,6-tetrahydropyridine]: the “fine granular argyrophilic debris in striata” value in the series with C57 black mice [1] was “Three of three mice”. For the same molecule, in the series on squirrel monkeys, the “behavioural effect of MPTP” value is reported as “profoundly akinetic”. Also, the lethality result with C57 black mice [2] was “No lethality”. Besides, in series [3] (20 mg/kg/h x 4 regimen, read-out: mice that die), the mortality is around 20%. The mortality in series [3] (read-out: animals killed) is above 50%. In addition, the “Neurological Status: Spontaneous Movement” value in series [4] (MPTP alone 0.35 mg per kg i.v. daily for four days, control score 10) came to 1. Also, the “Neurological Status: Total (x 5.26)” value in series [4] (MPTP alone, control 100) was 16 and 29 and 8. For the same molecule, in series [4] (MPTP alone, control score 2), the “Neurological Status: Reflexes” value is 0.5 and 1.5 and 0; the “Neurological Status: Tone” value is 0.5 (2×) and 2. In addition, the “Neurological Status: Tremor” value in series [4] (MPTP alone, control score 5) was 1 (2×) and 0. The “number of binding sites n1” value in series [5] (first class of binding sites) is recorded as “n1 = 0.08 µ mole per mg melanin”. Besides, in series [5] (first class of binding sites, 60 min), the “association constant K1” value was “K1 = 5.82 x 10^5 M^-1”. The “association constant K2” value in series [5] (second (intermediary) class of binding sites, 60 min) is reported as “K2 = 1.22 x 10^4 M^-1”. Also, the “number of binding sites n2” value in series [5] (second class of binding sites) is recorded as “n2 = 0.05 µ mole per mg melanin”. Moreover, the “number of binding sites n3” value in series [5] (third class of binding sites) was “n3 = 0.14 µ mole per mg melanin”. The “association constant K3” value in series [5] (third class of binding sites, 60 min) is “K3 = 7.68 x 10^2 M^-1”. The “reduction of Bmax of [^3H]mazindol binding sites” value in series [6] is 44%. Also, the “Bmax of [^3H]mazindol binding” value in series [6] (control 361) is 201 pmol/g tissue. Besides, in series [7] (setting [8]), the “Vmax of [^3H]DA striatal uptake, % of control” value is 37 % of control and the “decrease of Vmax of striatal synaptosomal [^3H]DA uptake” value is 62%. Further, in series [7] (one week after MPTP 20 mg/kg/h x 4, control 5540 ± 480), the “Vmax of [^3H]DA uptake” value was 2080 ± 305 cpm[^3H]DA/mg tissue/5 min. The Michaelis-Menten constant (Km) in series [7] (striatal synaptosomes of mice one week after MPTP 20 mg/kg/h x 4, read-out: Km(µm) of [^3H]DA uptake) came out at 0.12 ± 0.02 µM. The “Vmax of [^3H]DA striatal uptake, % of control” value in series [7] (three months after MPTP 20 mg/kg/h x 4) is recorded as 79 % of control. Besides, the “Vmax of [^3H]DA striatal uptake” value in series [7] (three months after MPTP, control 6238 (± 520)) is 4928 (± 408) CPM [^3H]DA/mg tissue/5 min.
